This is an account of results in US20230390297A1, “USE OF NUCLEOTIDE SYNTHESIS INHIBITORS FOR TARGETED THERAPY IN MLL3/4 COMPASS MUTANT CANCER” (priority 2022, published 2023).

The test system of series [1] is WT and Mll3/4 KO mESCs. The series is described as follows: RNA-seq of WT and Mll3/4 KO mESCs treated with LTX -/+ HPX. The format is cell-based, mouse. The note with it: 0.3 μM LTX or 50 μM HPX alone, 48 hours; LTX effect almost completely rescued by HPX. How it is done: (§1) FIG. 3. […] (A) WT and Mll3/4 KO cells were treated with 0-2.5 μM lometrexol (LTX)−/+50 hypoxanthine (HPX) for 48 hours. CellTiter-Glo® luminescent cell viability assay was performed to determine the percentage of inhibition under these conditions. (B) WT and KO cells were treated with 0.3 μM LTX−/+50 μM HPX for 48 hours, and cells were harvested for RNA-seq. Differential gene expression analyses were performed with indicated comparisons. (C) Principal component analysis of RNA-seq in (B). (D) Hierarchical clustering heatmap showing differentially expressed genes in KO cells in comparison with WT cells.
(§2) FIG. 10. Mll3/4 KO mESCs are more sensitive to purine synthesis inhibition. (A-B) WT and Mll3/4 KO cells were treated with 0-2.5 μM lometrexol (LTX) (A) or 0-5 methotrexate (MTX) (B) for 48 hours. CellTiter-Glo® luminescent cell viability assay was performed to determine the percentage of inhibition under these conditions with three different Mll3/4 KO clones included. (C) WT and Mll3/4 KO cells were treated with 0-40 μM SHIINI for 48 hours. MTT cell viability assay was performed to determine the percentage of inhibition under these conditions with three different Mll3/4 KO clones included.
Gene count tables were constructed using HTseq (56) with Ensembl gene annotations and used as input for edgeR 3.0.8 (57). Genes with Benjamini-Hochburg adjusted p-values less than were differentially expressed. Batch effects were removed using ComB at-seq on the raw read counts (58). Pathway analysis was performed with Metascape (59).

Series [2] concerns MLL4 mutant colorectal cancer cells (SW480, DLD1, HCT116, RKO). The series is described as follows: CellTiter-Glo viability assay in MLL4 wild type and MLL4 mutant colorectal cell lines. The series is classed as cell-based, human. Conditions: 72 hours; LTX 0-30 μM, Piericidin A 0-10 μM, Phenformin 0-30 mM.
Series [3] relates to Mll3/4 KO mESCs. Description: MTT cell viability assay in WT and Mll3/4 KO mESCs. The format is cell-based, mouse. Conditions: 0-40 μM, 48 hours; three Mll3/4 KO clones. Here is the method:
as §2
(Formazan colour is commonly taken as a measure of viable cells.)

The subject of series [4] is Mll3/4 KO mESCs. Description: CellTiter-Glo luminescent cell viability assay in WT and Mll3/4 KO mESCs. The series is classed as cell-based, mouse. The note with it: 48 hours; LTX 0-2.5 μM, MTX 0-5; three Mll3/4 KO clones. Here is the method: as §1, §2
In general terms: In ATP-based viability assays light output follows the ATP content of the culture.

For series [5], the system named is CAL51 breast cancer cells. The series is described as follows: CellTiter-Glo viability assay in CAL51 MLL4 WT, hNTD and KO cells. The format is cell-based, human. Here is the method:
FIG. 17. Cells lacking of MLL4 function are selectively sensitive to de novo purine synthesis inhibition. (A) Tracer levels of glutamine (M+1) in SW1417, Caco2, RKO and HCT116 cells. (B) Labeled purine metabolite levels with 15 N glutamine tracing in SW1417, Caco2, RKO and HCT116 cells. MLL4 WT cells, blue; MLL4 mutant cells, red. (C) CellTiter-Glo® luminescent cell viability assay in CAL51 MLL4 WT, heterozygous truncation mutation (hNTD), and KO cells treated with MTX (0-1 μM). (D) CAL51 WT and MLL4KO cells were treated with 0.04, or 0.4 μM MTX in the presence of H2O, 50 μM thymidine or 50 μM inosine. CellTiter-Glo® luminescent cell viability assay was performed. (E-J) Cells were infected with lentiviruses expressing shCtrl, shGART or shPAICS. Two distinct shRNAs were included for GART and PAICS. Western blot showing the knockdown of GART and PAICS in RKO, HCT116, Caco2 and HT55 cells (E). The growth rates of HCT116 (F), RKO (G), Caco2 (H) and HT55 (I) cells with shCtrl, shGART or shPAICS were measured by cell counting, and the cell number was normalized with day 0. Colony formation of the four cell lines with GART or PAICS knockdown was performed by seeding 500 or 1000 cells in the 6 well plates and stained after 10-14 days of culture with media change every three days (J).

For the compound `O=c1[nH]cnc2nc[nH]c12` [HPX, hypoxanthine], in series [1], the “gene expression change in WT and Mll3/4 KO cells” value is “subtle gene expression or phenotypic change”. In the case of `[H]/N=C(/N)N/C(=N/[H])NCCc1ccccc1` [Phenformin], in series [2], the “sensitivity of MLL4 mutant cells compared with MLL4 wild type cells (growth inhibition)” value was “no sensitivity difference between MLL4 WT and mutant cells”.

Take `C/C=C(\C)[C@H](O)[C@H](C)/C=C(C)/C=C/C/C(C)=C/Cc1nc(OC)c(OC)c(O)c1C` [Piericidin A]: the “sensitivity of MLL4 mutant cells compared with MLL4 wild type cells (growth inhibition)” value in series [2] is “no sensitivity difference between MLL4 WT and mutant cells”. Take `Cc1[nH]nc2c1C(c1cc(CO)cc(-c3ccccc3)c1)(C(C)C)C(C#N)=C(N)O2` (stereo not shown) [SHIN1]: the “sensitivity of Mll3/4 KO cells compared with WT cells (percentage of inhibition, MTT)” value in series [3] was “enhanced sensitivity”. `CN(Cc1cnc2nc(N)nc(N)c2n1)c1ccc(C(=O)N[C@@H](CCC(=O)O)C(=O)O)cc1` [methotrexate, (2S)-2-[[4-[(2,4-diaminopteridin-6-yl)methyl-methylamino]benzoyl]amino]pentanedioic acid]: the “sensitivity of Mll3/4 KO cells compared with WT cells (percentage of inhibition of viability)” value in series [4] was “enhanced sensitivity”. Besides, in series [5] (0.04 or 0.4 μM MTX with 50 μM thymidine or 50 μM inosine), the “rescue of cytotoxic effect on MLL4KO cells by nucleosides” value is “rescued by inosine not thymidine”. Besides, the “sensitivity of CAL51 cells with compromised MLL4 functions (MLL4hNTD, MLL4KO) compared with WT” value in series [5] (MTX 0-1 μM) is listed as “elevated MTX sensitivity”.
